Laboratory results taken from patent publication US10208033B2, “β-carboline, dihydro-β-carboline and tetrahydro-β-carboline alkaloid derivatives and preparation methods same and use in aspects of preventing and treating plant viruses, fungicides and insecticides” (NANKAI UNIVERSITY, priority 2013, dated 2019).
Where a name gives a salt, the structure may show the parent alone. Read-outs that look alike come from different tables or passages of the source.

Legend:
[1] = test system: Rhizoctonia cereali; experiment: Fungicidal (bactericidal) activity in vitro, PDA colony diameter; type: cell-based; conditions: 50 mg/kg
[2] = test system: Phytophthora capsici; experiment: as above; type: cell-based; conditions: 50 mg/kg
[3] = test system: tobacco mosaic virus (TMV); experiment: Anti-TMV in vivo therapeutic effect; parameters: species or system tobacco mosaic virus (host Nicotiana tabacum L.cv.Xanthi NN)
[4] = test system: Botrytis cinerea; experiment: Fungicidal (bactericidal) activity in vitro, PDA colony diameter; type: cell-based; conditions: 50 mg/kg
[5] = test system: Fusarium graminearumt; experiment: microbe, parasite or virus in culture; type: cell-based; conditions: 50 mg/kg
[6] = test system: armyworms; type: in vivo; conditions: concentration 600 mg/kg
[7] = test system: Fusarium fujikuroi; experiment: Fungicidal (bactericidal) activity in vitro, PDA colony diameter; type: cell-based; conditions: 50 mg/kg
[8] = test system: Bipolaria maydis; experiment: organism not typed; type: cell-based; conditions: 50 mg/kg
[9] = test system: Alternaria solani; experiment: Fungicidal (bactericidal) activity in vitro, PDA colony diameter; type: cell-based; conditions: 50 mg/kg
[10] = test system: corn borers
[11] = test system: Sclerotinia scleotiorum; experiment: Fungicidal (bactericidal) activity in vitro, PDA colony diameter; type: cell-based; conditions: 50 mg/kg
[12] = test system: Cercospora arachidicola; experiment: as above; type: cell-based; conditions: 50 mg/kg
[13] = test system: tobacco mosaic virus (TMV); experiment: Anti-TMV in vitro effect (half-leaf soaking); type: cell-based, tobacco mosaic virus (host Nicotiana tabacum L.cv.Xanthi NN)
[14] = test system: Colletotrichum orbiculare; experiment: Fungicidal (bactericidal) activity in vitro, PDA colony diameter; type: cell-based; conditions: 50 mg/kg
[15] = test system: cotton bollworms; experiment: whole plant or invertebrate
Description: Experimental method of cotton bollworms: feed and drug mixing method: measure 3 mL of prepared solution and add it to about 27 g of newly prepared feed, thereby obtaining needed concentration through dilution by 10 times.

[16] = test system: mosquito larvae; experiment: whole plant or invertebrate
Description: Experimental method of mosquito larvae: culex pipiens pallens, a normal colony raised indoors. Weigh about 5 mg of the compound for test, put it in a penicillin vial, add 5 mL of acetone (or an appropriate solvent), and shake and dissolve it to obtain a 1000 ppm mother solution. Pipette 0.5 mL of the mother solution, add it to a 100 mL beaker filled with 89.9 mL of water, select 10 mosquito larvae at the beginning of the fourth instar, and pour them to a beaker together with 10 mL of feeding solution. The concentration of the drug solution is 5 ppm. […] Use an aqueous solution containing 0.5 mL of test solvent as a blank.

[17] = test system: Rhizoctonia solani; experiment: Fungicidal (bactericidal) activity in vitro, PDA colony diameter; type: cell-based; conditions: 50 mg/kg
[18] = test system: Macrophoma kawatsukai; experiment: as above; type: cell-based; conditions: 50 mg/kg
[19] = test system: tobacco mosaic virus (TMV); experiment: Anti-TMV in vivo inactivation; parameters: species or system tobacco mosaic virus (host Nicotiana tabacum L.cv.Xanthi NN)
[20] = test system: potato late blight; experiment: microbe, parasite or virus in culture; type: cell-based
[21] = test system: cucumber fusarium wilt; experiment: Fungicidal (bactericidal) activity in vitro, PDA colony diameter; type: cell-based; conditions: 50 mg/kg
[22] = test system: tobacco mosaic virus (TMV); experiment: Anti-TMV in vivo protective effect; parameters: species or system tobacco mosaic virus (host Nicotiana tabacum L.cv.Xanthi NN)

Compound	Bactericidal activity (%) Rhizoctonia cereali [1] [%]	Bactericidal activity (%) Phytophthora capsici [2] [%]	Relative inhibition rate (%) In vivo therapy ([3]; treatment dose 100 μg/mL) [%]	Relative inhibition rate (%) In vivo therapy ([3]; treatment dose 500 μg/mL) [%]	Bactericidal activity (%) Botrytis cinerea [4] [%]	Bactericidal activity (%) Fusarium graminearumt [5] [%]	Armyworm Mortality (%) [6] [%]	Bactericidal activity (%) Fusarium fujikuroi [7] [%]	Bactericidal activity (%) Bipolaria maydis [8] [%]	Bactericidal activity (%) Alternaria solani [9] [%]	Bactericidal activity (%) Sclerotinia scleotiorum [11] [%]	Bactericidal activity (%) Cercospora arachidicola [12] [%]	Relative inhibition rate (%) In vitro activity ([13]; treatment dose 100 μg/mL) [%]	Relative inhibition rate (%) In vitro activity ([13]; treatment dose 500 μg/mL) [%]	Bactericidal activity (%) Colletotrichum orbiculare [14] [%]	Bactericidal activity (%) Rhizoctonia solani [17] [%]	Bactericidal activity (%) Macrophoma kawatsukai [18] [%]	Relative inhibition rate (%) In vivo inactivation ([19]; treatment dose 100 μg/mL) [%]	Relative inhibition rate (%) In vivo inactivation ([19]; treatment dose 500 μg/mL) [%]	Bactericidal activity (%) potato late blight [20] [%]	also measured
C[C@@H]1N[C@H](C(=O)NN=Cc2ccc3cc(O)ccc3c2)Cc2c1[nH]c1ccccc21 [Ic-14, (1S, 3S)—N′-(6-hydroxynaphthalene-2-methylene)-1-methyl-2,3,4,9-tetrahydropyridino [3,4-b] indol-3-formylhydrazine]	86.3	84.2	8.2	43.9	72.7	10.3	40	28.6	56.0	30.0	88.2	47.1	0	40.9	48.1	28.9	77.8	16.9	45.6	44.0	Corn borer Mortality (%) ([10]; concentration 600 mg/kg): 45%; Cotton bollworm Mortality (%) ([15]; concentration 600 mg/kg): 35%; Mosquito larvae Mortality (%) ([16]; concentration 10 mg/kg, 24 h): 75%; Bactericidal activity (%) Cucumber fusarium wilt [21]: 19.2%; Relative inhibition rate (%) In vivo protection ([22]; treatment dose 100 μg/mL): 0%; Relative inhibition rate (%) In vivo protection ([22]; treatment dose 500 μg/mL): 47.8%
CCOC(=O)[C@@H]1Cc2c([nH]c3ccccc23)CN1 [Ib-7, (S)-2,3,4,9-tetrahydropyridino [3,4-b] indol-3-ethyl formate]	78.1	66.7	15.9	30.7	50.0	42.9	5	64.3	42.1	50.0	60.0	42.9	12.3	26.9	47.6	42.9	64.7	19.3	36.5	40.0	Corn borer Mortality (%) ([10]; concentration 600 mg/kg): 5%; Cotton bollworm Mortality (%) ([15]; concentration 600 mg/kg): 20%; Mosquito larvae Mortality (%) ([16]; concentration 10 mg/kg, 24 h): 15%; Bactericidal activity (%) Cucumber fusarium wilt [21]: 33.3%; Relative inhibition rate (%) In vivo protection ([22]; treatment dose 100 μg/mL): 16.2%; Relative inhibition rate (%) In vivo protection ([22]; treatment dose 500 μg/mL): 40.1%
C[C@@H]1N[C@H](C(=O)NN=CC2CCCCC2)Cc2c1[nH]c1ccccc21 [Ic-25, (1S, 3S)—N′-(cyclohexylmethylene)-1-methyl-2,3,4,9-tetrahydropyridino [3,4-b] indol-3-formylhydrazine]	29.7	9.1	30.4	62.8	66.7	30.8	45	41.2	36.0	19.0	21.2	0.0	31.2	59.6	24.0	5.6	33.3	36.3	75.8	17.4	Corn borer Mortality (%) ([10]; concentration 600 mg/kg): 55%; Cotton bollworm Mortality (%) ([15]; concentration 600 mg/kg): 20%; Mosquito larvae Mortality (%) ([16]; concentration 5 mg/kg, 24 h): 10%; Mosquito larvae Mortality (%) ([16]; concentration 10 mg/kg, 24 h): 100%; Bactericidal activity (%) Cucumber fusarium wilt [21]: 4.5%; Relative inhibition rate (%) In vivo protection ([22]; treatment dose 100 μg/mL): 25.7%; Relative inhibition rate (%) In vivo protection ([22]; treatment dose 500 μg/mL): 69.2%
C[C@@H]1N[C@H](C(=O)NN=Cc2cccnc2)Cc2c1[nH]c1ccccc21 [Ic-16, (1S, 3S)—N′-(pyridine-3-methylene)-1-methyl-2,3,4,9-tetrahydropyridino [3,4-b] indol-3-formylhydrazine]	80.4	26.3	5.7	36.9	54.5	62.1	20	50.0	32.0	15.0	35.3	41.2	0	33.3	40.7	39.5	83.3	11.2	41	52.0	Corn borer Mortality (%) ([10]; in vivo): 30%; Cotton bollworm Mortality (%) ([15]; in vivo): 10%; Mosquito larvae Mortality (%) ([16]; in vivo): 40%; Bactericidal activity (%) Cucumber fusarium wilt [21]: 38.5%; Relative inhibition rate (%) In vivo protection ([22]; treatment dose 100 μg/mL): 0%; Relative inhibition rate (%) In vivo protection ([22]; treatment dose 500 μg/mL): 33.6%
